The supplement of paper PMC5579334

Key:
[1] = system: HSC2; assay: relative IC50 (inflection point of fitted dose-response curve, CellTiter-Glo viability, 72 h; top asymptote may be below 50% inhibition); higher = less potent
Method in brief: (§1)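 Viability was scored by CellTiter-Glo ATP luminescence, scaled from vehicle to positive-control wells, with duplicates averaged where present. The cells, MPNST lines and primary human Schwann cells at 750–1000 per well, sat 72 h at 37 °C, 5% CO2, in 384-well plates preprinted with each compound at five concentrations in 10-fold steps. Four-parameter logistic fits were run on the data. These fits give drug sensitivity score and relative IC50 censored at the top concentration, and percent inhibition is reported at the top concentration.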

[2] = system: STS26T; assay: as above
Method in brief: as §1

[3] = system: S462; assay: as above
Method in brief: as §1

[4] = system: S1507-2; assay: as above
Method in brief: as §1

[5] = system: HSC1; assay: as above
Method in brief: as §1

[6] = system: HSC2; assay: relative IC50 (inflection point of fitted dose-response curve, CellTox-Green cytotoxicity, 72 h; top asymptote may be below 50%); higher = less potent
Method in brief: (§2)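 MPNST cell lines and primary human Schwann cells were incubated 72 h at 37 °C in 384-well plates holding five 10-fold compound dilutions. CellTox-Green was added before seeding at a final 1:1000 dilution and reported fluorescence from DNA released by disrupted cells. Signals were scaled to vehicle and positive-control wells, and cultures failing plate quality control were dropped. Drug sensitivity score and relative IC50 come from four-parameter logistic fits, with IC50 censored at the top concentration.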

[7] = system: STS26T; assay: as above
Method in brief: as §2

[8] = system: S1507-2; assay: as above
Method in brief: as §2

[9] = system: ST8814; assay: as above
Method in brief: as §2

[10] = system: HSC1; assay: as above
Method in brief: as §2

[11] = system: ST8814; assay: relative IC50 (inflection point of fitted dose-response curve, CellTiter-Glo viability, 72 h; top asymptote may be below 50% inhibition); higher = less potent
Method in brief: as §1

[12] = system: HS-PSS; assay: relative IC50 (inflection point of fitted dose-response curve, CellTox-Green cytotoxicity, 72 h; top asymptote may be below 50%); higher = less potent
Method in brief: as §2

[13] = system: HS-PSS; assay: relative IC50 (inflection point of fitted dose-response curve, CellTiter-Glo viability, 72 h; top asymptote may be below 50% inhibition); higher = less potent
Method in brief: as §1

[14] = system: YST-1; assay: as above
Method in brief: as §1

[15] = system: HS-Sch-2; assay: as above
Method in brief: as §1

| Compound | relative IC50 [1] | relative IC50 [2] | relative IC50 [3] | relative IC50 [4] | relative IC50 [5] | relative IC50 [6] | relative IC50 [7] | relative IC50 [8] | relative IC50 [9] | relative IC50 [10] | relative IC50 [11] | relative IC50 [12] | relative IC50 [13] | relative IC50 [14] | relative IC50 [15] |
| --- | --- | --- | --- | --- | --- | --- | --- | --- | --- | --- | --- | --- | --- | --- | --- |
| Oc1ncc(N(CCCl)CCCl)c(O)n1 [Uracil mustard] | > 10000 nM | > 10000 nM | > 10000 nM | > 10000 nM | > 10000 nM | > 10000 nM | > 10000 nM | > 10000 nM | > 10000 nM | > 10000 nM | – | – | – | – | – |
| CS(=O)(=O)c1ccc(C(=O)Nc2ccc(Cl)c(-c3ccccn3)c2)c(Cl)c1 [Vismodegib] | > 10000 nM | > 10000 nM | > 10000 nM | > 10000 nM | > 10000 nM | > 10000 nM | > 10000 nM | > 10000 nM | > 10000 nM | – | > 10000 nM | > 10000 nM | – | – | – |
| Cc1cc2c(C(C)C)c(O)c(O)c(C=O)c2c(O)c1-c1c(C)cc2c(C(C)C)c(O)c(O)c(C=O)c2c1O [AT 101] | 1740 nM | 8980 nM | 3790 nM | 16300 nM | 3720 nM | > 100000 nM | > 100000 nM | > 100000 nM | – | 10700 nM | 7150 nM | 30300 nM | 15300 nM | 5300 nM | 5350 nM |
| Cn1cncc1[C@@](N)(c1ccc(Cl)cc1)c1ccc2c(c1)c(-c1cccc(Cl)c1)cc(=O)n2C [Tipifarnib] | 585 nM | 351 nM | 510 nM | 97.5 nM | 1350 nM | > 10000 nM | 342 nM | > 10000 nM | – | – | 366 nM | > 10000 nM | 683 nM | 175 nM | 1510 nM |
| O=C(Nc1ccc2[nH]nc(-c3ccncc3)c2c1)[C@@H]1CCN(CC(=O)N2CCN(c3ccc(-c4ncccn4)cc3)CC2)C1 | 159 nM | 822 nM | 137 nM | 568 nM | 263 nM | – | – | 1950 nM | 675 nM | > 10000 nM | 234 nM | > 10000 nM | 677 nM | 2270 nM | 773 nM |
| COc1cccc2c1C(=O)c1c(O)c3c(c(O)c1C2=O)C[C@@](O)(C(C)=O)C[C@@H]3O[C@H]1C[C@H](N)[C@H](O)[C@H](C)O1 [Daunorubicin] | 72.5 nM | 71.6 nM | 49.3 nM | 146 nM | 120 nM | 344 nM | – | > 1000 nM | – | 366 nM | 101 nM | > 1000 nM | 122 nM | 27 nM | 117 nM |
| CCN(CCO)CCCOc1ccc2c(Nc3cc(CC(=O)Nc4cccc(F)c4)[nH]n3)ncnc2c1 [AZD1152-HQPA] | 35.2 nM | 85.6 nM | 5.43 nM | 107 nM | 22.3 nM | – | 161 nM | > 1000 nM | 206 nM | > 1000 nM | 152 nM | > 1000 nM | – | 5.7 nM | > 1000 nM |
